Measurements published in patent US20140330170A1, “Method of Quantifying Cancer Treatment” (Exelixis, Inc., priority 2012, published 2014).

Tested on: metastatic CRPC patients with bone metastases
Test: Adaptive phase 2 trial (NCT00940225): case studies of the first three CRPC patients with bone metastases treated with compound 1
Assay type: in vivo, human
Text: All patients provided informed consent before study screening.

[1] = Patient 1, best response, 100 mg dose
[2] = Patient 2, best response, 100 mg dose
[3] = Patient 3, best response, 100 mg dose
[4] = three metastatic CRPC patients, summary

In the case of COc1cc2nccc(Oc3ccc(NC(=O)C4(C(=O)Nc5ccc(F)cc5)CC4)cc3)c2cc1OC [Compound 1, N-(4-{[6,7-bis(methyloxy)quinolin-4-yl]oxy}phenyl)-N′-(4-fluorophenyl)cyclopropane-1,1-dicarboxamide], the PSA (Patient 1, best response, change from baseline 430.4 ng/mL) is reported as −78%, the Hemoglobin (Patient 1, best response, change from baseline 13.5 g/dL) is reported as “+1.4 g/dL” and the tALP (Patient 1, best response, change from baseline 689 U/L) is reported as −77%. For the same compound, the Pain [1] was “Improvement”, the Tumor response [1] was −41% and the PSA (Patient 2, best response, change from baseline 14.7 ng/mL) was “+61%”. The Hemoglobin (Patient 2, best response, change from baseline 13.3 g/dL) was “+1.8 g/dL”, the tALP (Patient 2, best response, change from baseline 108 U/L) was −6% and the Bone scan [2] was “Improvement”. For the same compound, the Pain [2] was “Pain-free”, the Tumor response [2] was −20% and the PSA (Patient 3, best response, change from baseline 2.8 ng/mL) was −57%. For the same compound, the Hemoglobin (Patient 3, best response, change from baseline 10.2 g/dL) was “+2.2 g/dL”, the tALP (Patient 3, best response, change from baseline 869 U/L) was −77% and the Pain [3] was “Pain-free”. For the same compound, the Tumor response [3] was −51%, the soft tissue lesions (all three patients, during therapy, summary) was “evidence of response or stabilization in soft tissue lesions” and the bone pain (all three patients, summary) was “substantial reductions in bone pain”. For the same compound, the “uptake of radiotracer on bone scan” value (all three patients, summary) was “striking decrease in uptake of radiotracer on bone scan”, the bone lesions [4] was “near complete resolution of bone lesions” and the “bone pain and total serum alkaline phosphatase (tALP) levels” value [4] was “marked reduction in bone pain and total serum alkaline phosphatase (tALP) levels”. For the same compound, the measurable disease [4] was “reduction in measurable disease”.
